From ChEMBL document CHEMBL1201862, “PubChem BioAssay data set” (2004)
The source made the active and inactive calls.

Assays:
[1] = molecular target: T1, Calpain-2 catalytic subunit (Sus scrofa, UniProt P43367); assay: m-calpain protease blockers, concentration series – biochemical, fluorogenic peptide substrate, dose response (AID 1420); assay type: functional
T1 sequence (P43367 whole entry): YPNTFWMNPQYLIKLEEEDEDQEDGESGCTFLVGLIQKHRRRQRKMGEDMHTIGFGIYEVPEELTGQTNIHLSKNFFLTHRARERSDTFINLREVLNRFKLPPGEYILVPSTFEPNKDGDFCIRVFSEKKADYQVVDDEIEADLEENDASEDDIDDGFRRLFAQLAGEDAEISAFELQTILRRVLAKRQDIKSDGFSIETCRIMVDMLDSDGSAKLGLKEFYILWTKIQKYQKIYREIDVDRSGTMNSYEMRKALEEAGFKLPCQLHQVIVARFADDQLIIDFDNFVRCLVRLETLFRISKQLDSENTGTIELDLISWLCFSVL

[2] = viability loss in human Jurkat cells – cell-based, luminescence, cytotoxicity control for P. falciparum gametocyte viability project, dose response (AID 1117277); assay type: functional;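 further: potency reflects loss of cellular ATP meaning fewer viable cells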
[3] = viability inhibitors of stage V gametocytes – luminescence, dose response (AID 1117278); assay type: functional, cell-based;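 further: gametocytes exposed to compound for 24 hours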
[4] = loss of A549 viability via ATP – cell-based, plate reader, dry powder, set 7, cytotoxicity control, dose response (AID 743318); assay type: functional
[5] = molecular target: Endoplasmic reticulum aminopeptidase 2 (Homo sapiens, UniProt Q6P179); assay: inhibition of ERAP2 Arg-AMC cleavage – biochemical, plate reader, dry powder, set 2, selectivity assay for selective ERAP1 modulator project, dose response (AID 1117289); assay type: functional
Endoplasmic reticulum aminopeptidase 2, sequence (Q6P179 whole entry): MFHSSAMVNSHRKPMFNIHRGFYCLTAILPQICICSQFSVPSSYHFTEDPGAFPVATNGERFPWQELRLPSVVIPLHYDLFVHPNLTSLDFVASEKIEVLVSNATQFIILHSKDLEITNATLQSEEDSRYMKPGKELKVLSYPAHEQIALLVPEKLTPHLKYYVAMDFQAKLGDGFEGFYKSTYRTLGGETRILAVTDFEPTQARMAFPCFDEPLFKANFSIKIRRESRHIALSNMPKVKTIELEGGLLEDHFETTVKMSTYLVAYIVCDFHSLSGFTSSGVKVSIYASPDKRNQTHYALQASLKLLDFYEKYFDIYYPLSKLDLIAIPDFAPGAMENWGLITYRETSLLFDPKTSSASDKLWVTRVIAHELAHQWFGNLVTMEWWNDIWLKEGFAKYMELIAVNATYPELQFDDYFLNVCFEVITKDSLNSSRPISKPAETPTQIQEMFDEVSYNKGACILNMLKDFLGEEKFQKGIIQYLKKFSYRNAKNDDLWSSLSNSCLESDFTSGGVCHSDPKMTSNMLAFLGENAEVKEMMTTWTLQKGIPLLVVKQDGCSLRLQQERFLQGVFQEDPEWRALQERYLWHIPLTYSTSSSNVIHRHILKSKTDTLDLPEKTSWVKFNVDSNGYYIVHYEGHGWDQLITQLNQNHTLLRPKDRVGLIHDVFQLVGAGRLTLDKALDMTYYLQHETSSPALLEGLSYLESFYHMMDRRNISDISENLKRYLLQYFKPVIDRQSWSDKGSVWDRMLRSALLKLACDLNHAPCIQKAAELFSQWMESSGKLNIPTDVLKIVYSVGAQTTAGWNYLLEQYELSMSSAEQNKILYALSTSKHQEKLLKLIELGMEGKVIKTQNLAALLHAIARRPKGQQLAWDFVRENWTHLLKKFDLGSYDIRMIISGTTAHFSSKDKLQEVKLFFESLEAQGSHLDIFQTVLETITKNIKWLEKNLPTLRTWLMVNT

[6] = molecular target: Leucyl-cystinyl aminopeptidase (Mus musculus, UniProt Q8C129); assay: mouse IRAP aminopeptidase activity inhibition – biochemical, dry powder samples, set 3, selectivity assay for ERAP1 modulator project, dose response (AID 1117288); assay type: functional
Leucyl-cystinyl aminopeptidase, sequence (Q8C129 whole entry): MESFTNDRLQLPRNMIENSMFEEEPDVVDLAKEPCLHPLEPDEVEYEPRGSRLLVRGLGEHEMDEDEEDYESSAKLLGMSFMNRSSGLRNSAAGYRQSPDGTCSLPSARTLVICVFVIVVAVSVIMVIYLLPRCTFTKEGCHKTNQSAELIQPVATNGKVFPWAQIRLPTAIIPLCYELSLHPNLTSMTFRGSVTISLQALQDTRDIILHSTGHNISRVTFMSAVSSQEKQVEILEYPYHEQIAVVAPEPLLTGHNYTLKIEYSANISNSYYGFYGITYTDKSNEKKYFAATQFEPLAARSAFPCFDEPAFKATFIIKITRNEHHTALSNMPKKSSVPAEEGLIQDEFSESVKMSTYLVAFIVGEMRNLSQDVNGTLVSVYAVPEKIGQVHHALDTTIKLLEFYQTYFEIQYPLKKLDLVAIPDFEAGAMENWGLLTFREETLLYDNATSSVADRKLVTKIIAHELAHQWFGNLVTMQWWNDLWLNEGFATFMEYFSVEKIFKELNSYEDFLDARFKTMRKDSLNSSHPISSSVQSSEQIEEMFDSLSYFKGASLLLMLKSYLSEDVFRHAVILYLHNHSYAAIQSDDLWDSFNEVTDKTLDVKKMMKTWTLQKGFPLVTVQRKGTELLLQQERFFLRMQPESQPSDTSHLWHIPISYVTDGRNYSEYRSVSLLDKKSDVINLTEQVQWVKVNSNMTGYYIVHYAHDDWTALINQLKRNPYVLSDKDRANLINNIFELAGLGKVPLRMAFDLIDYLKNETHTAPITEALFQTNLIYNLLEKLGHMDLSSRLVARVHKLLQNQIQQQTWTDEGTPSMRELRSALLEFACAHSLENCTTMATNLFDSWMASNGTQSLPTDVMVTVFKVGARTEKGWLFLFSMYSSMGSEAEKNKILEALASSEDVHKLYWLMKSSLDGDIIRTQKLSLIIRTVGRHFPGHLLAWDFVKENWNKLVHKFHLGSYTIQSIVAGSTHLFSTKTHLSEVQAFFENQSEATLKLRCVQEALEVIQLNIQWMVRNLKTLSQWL

[7] = cytotoxicity toward HCT116 cells – cell-based, CellTiter-Glo luminescence, IC50, dose response (AID 1117332); assay type: functional; conditions: HCT-116
[8] = NIH3T3 cell viability loss – ATP luminescence, mouse fibroblasts, counter-screen, dose response (AID 2010); assay type: functional, cell-based; conditions: nih3t3;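 further: cells exposed to compound for about 90 hours before reading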
[9] = cAMP pathway inhibition in counterscreen cell line – TR-FRET cAMP detection, counter-screen for MC4R biased antagonist project, dose response (AID 602305); assay type: functional, cell-based;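 further: U2OS cells stimulated with forskolin near its EC80 as the cAMP inducer; potency is for inhibition of forskolin-stimulated cAMP signaling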
[10] = rise of 2N DNA cells, HeLa – IC50, dose response (AID 1117349); assay type: functional, cell-based
[11] = SNU-C1 cell viability reduction, dose response, CellTiter-Glo luminescence (AID 1117323); assay type: functional, cell-based
[12] = glucagon-like peptide-1 release potency in STC-1, concentration-response, half-maximal inhibitory concentration in the STC-1 line (AID 1117345); assay type: functional, cell-based
INS1 = assay: INS-1E survival protection against cytokine death – cell-based, luminescence, retest, dose response (AID 449756); assay type: functional; conditions: Rattus norvegicus;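 further: cell death triggered by IL-1 beta plus TNF-alpha plus IFN-gamma mixture; protective hits raise ATP signal compared with cytokine alone wells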
[13] = IGROV1 cell killing – plate reader, dry powder samples, PAX8 inhibitor project, dose response (AID 743043); assay type: functional, cell-based; conditions: IGROV-1
[14] = Reduced DLD-1 viability, concentration-response, CellTiter-Glo luminescence (AID 1117352); assay type: functional
[15] = OV-90 cell viability loss – plate reader, dry powder, SA8, PAX8 inhibitor project, dose response (AID 743149); assay type: functional, cell-based
[16] = Trypanosoma cruzi growth suppression in host cells – NIH3T3 host cells, beta-gal luminescence, confirmation (AID 2044); assay type: functional, cell-based;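 further: intracellular parasites grown in NIH/3T3 mouse fibroblasts as host cells; luminescent beta-galactosidase reporter signal from transgenic T. cruzi replicating inside host cells; inhibitors lower the luminescence signal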
[17] = COV434 cell viability loss – plate reader, dry powder, SA7, cytotoxicity control for PAX8 inhibitor project, dose response (AID 743145); assay type: functional, cell-based
[18] = inhibitors acting on PAX2 in cells – cell-based, plate reader, dry powder samples, selectivity assay for PAX8 inhibitor project, dose response (AID 743048); assay type: functional;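 further: HEK293 cells carrying a WT1 promoter luciferase reporter driven by expressed Pax2; potency is for inhibition of Pax2 driven reporter signal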
[19] = COV362 cell viability loss – plate reader, dry powder, SA12, cytotoxicity control for PAX8 inhibitor project, dose response (AID 743144); assay type: functional, cell-based
[20] = cytotoxicity toward Colo320 cells – cell-based, CellTiter-Glo luminescence, IC50, dose response (AID 1117334); assay type: functional; conditions: COLO 320
[21] = OVCAR-3 cell viability loss – plate reader, dry powder samples, PAX8 inhibitor project, dose response (AID 743044); assay type: functional, cell-based
[22] = CellTiter-Glo luminescence survival assay, SW480 colon tumor line, concentration-response curve, half-maximal inhibitory concentration (AID 1117338); assay type: functional
[23] = Potency on glucagon-like peptide 1 release, dose-response in NCI-H716 cell line, half maximal inhibitory concentration (AID 1117344); assay type: functional, cell-based
Vero = assay: cells; assay type: functional; conditions: Chlorocebus sabaeus
[24] = OVCAR4 cell viability loss – plate reader, dry powder, SA11, cytotoxicity control for PAX8 inhibitor project, dose response (AID 743150); assay type: functional, cell-based; conditions: OVCAR-4
[25] = PAX8-dependent cell viability loss – plate reader, dry powder, dose response (AID 743049); assay type: functional, cell-based
[26] = A2780 cell killing – plate reader, dry powder samples, cytotoxicity control, dose response (AID 743046); assay type: functional, cell-based
[27] = cytotoxicity toward HT-29 cells – cell-based, CellTiter-Glo luminescence, IC50, dose response (AID 1117330); assay type: functional
[28] = RKO cell viability reduction, dose response, CellTiter-Glo luminescence (AID 1117322); assay type: functional
[29] = IC50 of insulin release inhibition, rat insulinoma INS-1E line, 5 mM glucose, cell-based (AID 1117331); assay type: functional
[30] = PAX5 cellular inhibition readout – cell-based, plate reader, dry powder samples, selectivity assay for PAX8 inhibitor project, dose response (AID 743047); assay type: functional;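 further: HEK293 cells carrying a Pax5 driven CD19 promoter luciferase reporter; potency of inhibitors that lower reporter luminescence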
[31] = rise of 4N DNA cells, HeLa – IC50, dose response (AID 1117351); assay type: functional, cell-based

SMILES: CCc1ccc2nc(NC(=O)Cn3cnc4ccccc4c3=O)sc2c1
- IC50 [1]: 11.7 µM (not active)
- IC50 [2]: > 83.3 µM (inactive)
- IC50 [3]: > 109 µM (inactive)

SMILES: Cc1ccc(C(C)C)c(OCCn2c(=S)[nH]c3cc(F)ccc32)c1
- AC50 [4]: 26.9 µM (active)

SMILES: COc1ccc(C(=O)O)cc1S(=O)(=O)Nc1ccc(C(F)(F)F)cc1N1CCCCC1
- AC50 [5]: 12.5 µM (active)
- AC50 [6]: 77 µM (active)

SMILES: N=C(NCCCCCCNC(=N)NC(=N)Nc1ccc(Cl)cc1)NC(=N)Nc1ccc(Cl)cc1 [CHLORHEXIDINE]
- IC50 [7]: 4.39 µM (active)
- EC50 [8]: 6.74 µM (active)
- IC50 [9]: 31.8 µM (inactive)
- IC50 [10]: > 10 µM (inactive)
- IC50 [11]: 0.439 µM (active)
- IC50 [12]: 10.3 µM (inactive)
- AC50 (INS1): 4.67 µM (active)
- AC50 [13]: 15.6 µM (active)
- IC50 [14]: 2.8 µM (active)
- AC50 [15]: 20 µM (active)
- EC50 [16]: 0.178 µM (active)
- AC50 [17]: 12.2 µM (active)
- AC50 [18]: 13.6 µM (active)
- AC50 [19]: 21.6 µM (active)
- IC50 [20]: 5.16 µM (inactive)
- AC50 [21]: 13.8 µM (active)
- IC50 [22]: 5.67 µM (inactive)
- IC50 [23]: 26.2 µM (inactive)
- CC50 (Vero): 8.43 µM (active)
- AC50 [24]: 33.9 µM (active)
- AC50 [25]: 12.5 µM (active)
- AC50 [26]: 13.9 µM (active)
- IC50 [27]: 3.79 µM (active)
- IC50 [28]: 4.58 µM (active)
- IC50 [29]: 25.2 µM (inactive)
- AC50 [30]: 16.4 µM (active)
- IC50 [31]: > 10 µM (inactive)
